Assay results reported in patent US6451736B1, “Substituted aromatic thiocarboxylic acid amides and their use as herbicides” (Bayer Aktiengesellschaft, priority 1994, dated 2002).

Key:
Format in all cases: in vivo
Chenopodium [1] = experiment: Post-emergence test/greenhouse; details: Table C, after three weeks
Protocol: (§1) To produce a suitable preparation of active compound, 1 part by weight of active compound is mixed with the stated amount of solvent, the stated amount of emulsifier is added and the concentrate is diluted with water to the desired concentration.
(§2) Test plants which have a height of 5-15 cm are sprayed with the preparation of active compound in such a way as to apply the particular amounts of active compound desired per unit area. After three weeks, the degree of damage to the plants is rated in % damage in comparison to the development of the untreated control.
(§3) 0%=no action (like intreated control)

Abuthilon [2] = experiment: Post-emergence test/greenhouse; details: Table C, after three weeks
Protocol: as §1, §2, §3

Veronica = experiment: Post-emergence test/greenhouse; details: Table C, after three weeks
Protocol: as §1, §2, §3

Wheat [3] = experiment: Post-emergence test/greenhouse; details: Table C, after three weeks
Protocol: as §1, §2, §3

Amaranthus [4] = experiment: Post-emergence test/greenhouse; details: Table C, after three weeks
Protocol: as §1, §2, §3

Solanum [5] = experiment: Post-emergence test/greenhouse; details: Table C, after three weeks
Protocol: as §1, §2, §3

Maize [6] = experiment: Post-emergence test/greenhouse; details: Table C, after three weeks
Protocol: as §1, §2, §3

Chenopodium [7] = experiment: Pre-emergence test/greenhouse; details: Table B, after three weeks
Protocol: as §1
(§4) Seeds of the test plants are sown in normal soil and, after 24 hours, watered with the preparation of active compound. It is expedient to keep constant the amount of water per unit area. The concentration of the active compound in the preparation is of no importance, only the amount of active compound applied per unit area being decisive. After three weeks, the degree of damage to the plants is rated in % damage in comparison to the development of the untreated control. The figures denote:
(§5) 0%=no action (like untreated control)

Abuthilon [8] = experiment: Pre-emergence test/greenhouse; details: Table B, after three weeks
Protocol: as §1, §4, §5

Wheat [9] = experiment: Pre-emergence test/greenhouse; details: Table B, after three weeks
Protocol: as §1, §4, §5

Matricaria = experiment: Pre-emergence test/greenhouse; details: Table B, after three weeks
Protocol: as §1, §4, §5

Amaranthus [10] = experiment: Pre-emergence test/greenhouse; details: Table B, after three weeks
Protocol: as §1, §4, §5

Solanum [11] = experiment: Pre-emergence test/greenhouse; details: Table B, after three weeks
Protocol: as §1, §4, §5

Maize [12] = experiment: Pre-emergence test/greenhouse; details: Table B, after three weeks
Protocol: as §1, §4, §5

Portulaca = experiment: Pre-emergence test/greenhouse; details: Table B, after three weeks
Protocol: as §1, §4, §5

| SMILES | degree of damage, Chenopodium (Chenopodium [1]; 15 g/ha) [%] | degree of damage, Abuthilon (Abuthilon [2]; 15 g/ha) [%] | degree of damage, Veronica (Veronica; 15 g/ha) [%] | degree of damage, Wheat (Wheat [3]; 15 g/ha) [%] | degree of damage, Amaranthus (Amaranthus [4]; 15 g/ha) [%] | degree of damage, Solanum (Solanum [5]; 15 g/ha) [%] | degree of damage, Maize (Maize [6]; 15 g/ha) [%] | degree of damage, Chenopodium (Chenopodium [7]; 60 g/ha) [%] | degree of damage, Abuthilon (Abuthilon [8]; 60 g/ha) [%] | degree of damage, Wheat (Wheat [9]; 60 g/ha) [%] | degree of damage, Matricaria (Matricaria; 60 g/ha) [%] | degree of damage, Amaranthus (Amaranthus [10]; 60 g/ha) [%] | degree of damage, Solanum (Solanum [11]; 60 g/ha) [%] | degree of damage, Maize (Maize [12]; 60 g/ha) [%] | degree of damage, Portulaca (Portulaca; 60 g/ha) [%] | also measured |
| --- | --- | --- | --- | --- | --- | --- | --- | --- | --- | --- | --- | --- | --- | --- | --- | --- |
| Cn1c(C(F)(F)F)cc(=O)n(-c2cc(NS(C)(=O)=O)c(C(N)=S)cc2F)c1=S [Example 26] | 50 | 50 | 100 | 0 | 90 | 50 | 30 | 100 | 100 | 0 | 100 | 80 | 90 | 0 | 100 |  |
| C#CC(C)Oc1cc(-n2nc(C(F)(F)F)n(C)c2=O)c(F)cc1C(N)=S (stereo not drawn) [Example 32] |  |  |  |  |  |  |  |  |  |  |  |  |  |  |  | degree of damage, Chenopodium (Chenopodium [1]; 4 g/ha): 95%; degree of damage, Abuthilon (Abuthilon [2]; 4 g/ha): 100%; degree of damage, Veronica (Veronica; 4 g/ha): 100%; degree of damage, Wheat (Wheat [3]; 4 g/ha): 15%; degree of damage, Amaranthus (Amaranthus [4]; 4 g/ha): 100%; degree of damage, Solanum (Solanum [5]; 4 g/ha): 100%; degree of damage, Maize (Maize [6]; 4 g/ha): 30%; degree of damage, Chenopodium (Chenopodium [7]; 30 g/ha): 100%; degree of damage, Wheat (Wheat [9]; 30 g/ha): 10%; degree of damage, Matricaria (Matricaria; 30 g/ha): 100%; degree of damage, Amaranthus (Amaranthus [10]; 30 g/ha): 100%; degree of damage, Solanum (Solanum [11]; 30 g/ha): 100%; degree of damage, Maize (Maize [12]; 30 g/ha): 0%; degree of damage, Portulaca (Portulaca; 30 g/ha): 95% |
| CCS(=O)(=O)Nc1cc(-n2nc(C3CC3)n(C)c2=O)c(F)cc1C(N)=S [Example 13] | 80 | 95 | 90 | 0 | 100 | 100 | 30 | 100 | 100 | 0 | 70 | 100 | 100 | 0 | 90 |  |
| CC(C)Oc1cc(N2C(=O)C3CCCCN3C2=O)c(F)cc1C(N)=S (stereo not drawn) [Example 46] |  |  |  |  |  |  |  | 100 | 100 | 0 | 100 | 100 | 100 | 70 | 100 | degree of damage, Chenopodium (Chenopodium [1]; 8 g/ha): 95%; degree of damage, Abuthilon (Abuthilon [2]; 8 g/ha): 100%; degree of damage, Veronica (Veronica; 8 g/ha): 100%; degree of damage, Wheat (Wheat [3]; 8 g/ha): 15%; degree of damage, Amaranthus (Amaranthus [4]; 8 g/ha): 100%; degree of damage, Solanum (Solanum [5]; 8 g/ha): 100%; degree of damage, Maize (Maize [6]; 8 g/ha): 20% |
| COCCOCCOc1cc(-n2nc(C)n(C(F)F)c2=O)c(F)cc1C(N)=S [Example 51] | 70 | 100 | 100 | 15 | 100 | 100 | 60 |  |  |  |  |  |  |  |  | degree of damage, Chenopodium (Chenopodium [7]; 30 g/ha): 100%; degree of damage, Abuthilon (Abuthilon [8]; 30 g/ha): 100%; degree of damage, Wheat (Wheat [9]; 30 g/ha): 0%; degree of damage, Matricaria (Matricaria; 30 g/ha): 95%; degree of damage, Solanum (Solanum [11]; 30 g/ha): 100%; degree of damage, Maize (Maize [12]; 30 g/ha): 20%; degree of damage, Portulaca (Portulaca; 30 g/ha): 100% |
| Cn1c(C(F)F)nn(-c2cc(F)c(C(N)=S)cc2F)c1=S [Example 8] |  |  |  |  |  |  |  | 100 | 100 | 40 | 95 | 100 | 100 | 0 | 95 | degree of damage, Chenopodium (Chenopodium [1]; 60 g/ha): 100%; degree of damage, Abuthilon (Abuthilon [2]; 60 g/ha): 100%; degree of damage, Veronica (Veronica; 60 g/ha): 100%; degree of damage, Wheat (Wheat [3]; 60 g/ha): 10%; degree of damage, Amaranthus (Amaranthus [4]; 60 g/ha): 100%; degree of damage, Solanum (Solanum [5]; 60 g/ha): 100%; degree of damage, Maize (Maize [6]; 60 g/ha): 30% |
| CCS(=O)(=O)Nc1cc(-n2nc3n(c2=O)CCCC3)c(F)cc1C(N)=S [Example 1, 2-(2-fluoro-5-ethylsulphonylamino-4-thiocarbamoyl-phenyl)-5,6,7,8-tetrahydro-1,2,4-triazolo[4,3-a]pyridin-3(2H)-one] | 95 | 100 | 100 | 10 | 95 | 100 | 50 |  |  |  |  |  |  |  |  | degree of damage, Chenopodium (Chenopodium [7]; 125 g/ha): 100%; degree of damage, Abuthilon (Abuthilon [8]; 125 g/ha): 100%; degree of damage, Wheat (Wheat [9]; 125 g/ha): 0%; degree of damage, Matricaria (Matricaria; 125 g/ha): 95%; degree of damage, Amaranthus (Amaranthus [10]; 125 g/ha): 100%; degree of damage, Solanum (Solanum [11]; 125 g/ha): 100%; degree of damage, Maize (Maize [12]; 125 g/ha): 0%; degree of damage, Portulaca (Portulaca; 125 g/ha): 100% |
| CCOc1cc(-n2nc3n(c2=O)CCCC3)c(F)cc1C(N)=S [Example 12] |  |  |  |  |  |  |  | 100 | 70 | 20 | 95 | 70 | 70 | 0 | 95 | degree of damage, Chenopodium (Chenopodium [1]; 8 g/ha): 95%; degree of damage, Abuthilon (Abuthilon [2]; 8 g/ha): 100%; degree of damage, Veronica (Veronica; 8 g/ha): 100%; degree of damage, Wheat (Wheat [3]; 8 g/ha): 10%; degree of damage, Amaranthus (Amaranthus [4]; 8 g/ha): 100%; degree of damage, Solanum (Solanum [5]; 8 g/ha): 100%; degree of damage, Maize (Maize [6]; 8 g/ha): 30% |
| CCS(=O)(=O)Nc1cc(-n2nc(C(F)F)n(C)c2=O)c(F)cc1C(N)=S [Example 9] |  |  |  |  |  |  |  | 100 | 100 | 0 | 95 | 100 | 100 | 0 | 90 | degree of damage, Chenopodium (Chenopodium [1]; 60 g/ha): 100%; degree of damage, Abuthilon (Abuthilon [2]; 60 g/ha): 100%; degree of damage, Veronica (Veronica; 60 g/ha): 100%; degree of damage, Wheat (Wheat [3]; 60 g/ha): 10%; degree of damage, Amaranthus (Amaranthus [4]; 60 g/ha): 100%; degree of damage, Solanum (Solanum [5]; 60 g/ha): 100%; degree of damage, Maize (Maize [6]; 60 g/ha): 30% |
| CCS(=O)(=O)Nc1cc(N2C(=O)C3=C(CCCC3)C2=O)c(F)cc1C(N)=S [Example 23] |  |  |  |  |  |  |  | 95 | 95 | 0 | 100 | 70 | 70 | 0 | 95 | degree of damage, Chenopodium (Chenopodium [1]; 30 g/ha): 90%; degree of damage, Abuthilon (Abuthilon [2]; 30 g/ha): 95%; degree of damage, Veronica (Veronica; 30 g/ha): 100%; degree of damage, Wheat (Wheat [3]; 30 g/ha): 0%; degree of damage, Solanum (Solanum [5]; 30 g/ha): 100%; degree of damage, Maize (Maize [6]; 30 g/ha): 50% |
